From patent publication US20080242663A1, “NOVEL PYRIMIDINE DERIVATIVES 698” (ASTRAZENECA AB, priority 2007, published 2008)

biological target: T1, recombinant EphB4 (Homo sapiens, UniProt P54760); test: In vitro EphB4 enzyme assay (Alphascreen); assay type: biochemical
T1 construct: amino acids 563-987; Swiss-Prot Acc; No. P54760; purchased ProQinase GmbH 0178-0000-3
T1 sequence (P54760 563-987): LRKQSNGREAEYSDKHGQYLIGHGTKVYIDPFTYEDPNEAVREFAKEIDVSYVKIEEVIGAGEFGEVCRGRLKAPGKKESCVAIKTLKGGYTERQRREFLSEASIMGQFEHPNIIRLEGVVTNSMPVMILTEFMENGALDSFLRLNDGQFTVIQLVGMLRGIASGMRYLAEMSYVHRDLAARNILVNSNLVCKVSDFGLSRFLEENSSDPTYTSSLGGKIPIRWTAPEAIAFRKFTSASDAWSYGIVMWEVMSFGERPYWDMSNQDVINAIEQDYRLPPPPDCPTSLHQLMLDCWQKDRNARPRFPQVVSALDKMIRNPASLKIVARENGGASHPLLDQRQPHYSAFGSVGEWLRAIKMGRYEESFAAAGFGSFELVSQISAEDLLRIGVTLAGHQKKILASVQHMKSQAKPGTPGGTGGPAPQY
Method: This assay detects inhibitors of EphB4-mediated phosphorylation of a polypeptide substrate using Alphascreen™ luminescence detection technology. Briefly, recombinant EphB4 was incubated with a biotinylated-polypeptide substrate (biotin-poly-GAT) in presence of magnesium-ATP. The reaction was stopped by addition of EDTA, together with streptavidin-coated donor beads which bind the biotin-substrate containing any phosphorylated tyrosine residues. Anti-phosphotyrosine antibodies present on acceptor beads bind to phosphorylated substrate, thus bringing the donor & acceptor beads into close proximity. Subsequent excitation of the donor beads at 680 nm generated singlet oxygen species that interact with a chemiluminescer on the acceptor beads, leading to light emission at 520-620 nm. The signal intensity is directly proportional to the level of substrate phosphorylation and thus inhibition is measured by a decrease in signal.
Assay plates were then incubated at room temperature for 1 hr. […] The plates were sealed under natural lighting conditions, wrapped in aluminium foil and incubated in the dark for a further 20 hrs.
The resulting assay signal was determined on the Perkin Elmer EnVision plate reader. The minimum value was subtracted from all values, and the signal plotted against compound concentration to generate IC50 data.

Row | Structure (SMILES) | IC50
1 | CN(c1ccnc(Nc2cc(N3CCOCC3)cc(N3CCOCC3)c2)n1)c1ccc(Cl)cc1Cl [Example 15.1, N′-(2,4-dichlorophenyl)-N-(3,5-dimorpholin-4-ylphenyl)-N′-methyl-pyrimidine-2,4-diamine] | 34100 nM
2 | COc1cc(N(C)c2ccnc(Nc3cc(N4CCOCC4)cc(N4CCOCC4)c3)n2)ccc1C#N [Example 15.2, 4-[[2-[(3,5-dimorpholin-4-ylphenyl)amino]pyrimidin-4-yl]-methyl-amino]-2-methoxy-benzonitrile] | 206 nM
3 | COc1ccc(N(C)c2ccnc(Nc3cc(N4CCOCC4)cc(N4CCOCC4)c3)n2)cc1OC [Example 15.3, N′-(3,4-dimethoxyphenyl)-N-(3,5-dimorpholin-4-ylphenyl)-N′-methyl-pyrimidine-2,4-diamine] | 1000 nM
4 | COc1ccc(OC)c(N(C)c2ccnc(Nc3cc(N4CCOCC4)cc(N4CCOCC4)c3)n2)c1 [Example 15.4, N′-(2,5-dimethoxyphenyl)-N-(3,5-dimorpholin-4-ylphenyl)-N′-methyl-pyrimidine-2,4-diamine] | 680 nM
5 | COc1cc(OC)cc(N(C)c2ccnc(Nc3cc(N4CCOCC4)cc(N4CCOCC4)c3)n2)c1 [Example 15.5, N′-(3,5-dimethoxyphenyl)-N-(3,5-dimorpholin-4-ylphenyl)-N′-methyl-pyrimidine-2,4-diamine] | 1120 nM
6 | CN(c1ccnc(Nc2cc(N3CCOCC3)cc(N3CCOCC3)c2)n1)c1cccc(Cl)c1C#N [Example 15.6, 2-chloro-6-[[2-[(3,5-dimorpholin-4-ylphenyl)amino]pyrimidin-4-yl]-methyl-amino]benzonitrile] | 417 nM
7 | CN(c1ccc(F)c(F)c1)c1ccnc(Nc2cc(N3CCOCC3)cc(N3CCOCC3)c2)n1 [Example 15.7, N′-(3,4-difluorophenyl)-N-(3,5-dimorpholin-4-ylphenyl)-N′-methyl-pyrimidine-2,4-diamine] | 707 nM
8 | CN(c1ccnc(Nc2cc(N3CCOCC3)cc(N3CCOCC3)c2)n1)c1cc(F)ccc1F [Example 15.8, N′-(2,5-difluorophenyl)-N-(3,5-dimorpholin-4-ylphenyl)-N′-methyl-pyrimidine-2,4-diamine] | 338 nM
9 | CN(c1ccnc(Nc2cc(N3CCOCC3)cc(N3CCOCC3)c2)n1)c1ccc(F)c(F)c1F [Example 15.9, N-(3,5-dimorpholin-4-ylphenyl)-N′-methyl-N′-(2,3,4-trifluorophenyl)pyrimidine-2,4-diamine] | 602 nM
10 | COc1cc(N(C)c2ccnc(Nc3cc(N4CCOCC4)cc(N4CCOCC4)c3)n2)ccc1C [Example 15.10, N-(3,5-dimorpholin-4-ylphenyl)-N′-(3-methoxy-4-methyl-phenyl)-N′-methyl-pyrimidine-2,4-diamine] | 7730 nM
11 | COc1ccc(N(C)c2ccnc(Nc3cc(N4CCOCC4)cc(N4CCOCC4)c3)n2)c(C)c1 [Example 15.11, N-(3,5-dimorpholin-4-ylphenyl)-N′-(4-methoxy-2-methyl-phenyl)-N′-methyl-pyrimidine-2,4-diamine] | 1320 nM
12 | COc1cc(C)ccc1N(C)c1ccnc(Nc2cc(N3CCOCC3)cc(N3CCOCC3)c2)n1 [Example 15.12, N-(3,5-dimorpholin-4-ylphenyl)-N′-(2-methoxy-4-methyl-phenyl)-N′-methyl-pyrimidine-2,4-diamine] | 1400 nM
13 | COc1ccc(C)cc1N(C)c1ccnc(Nc2cc(N3CCOCC3)cc(N3CCOCC3)c2)n1 [Example 15.13, N-(3,5-dimorpholin-4-ylphenyl)-N′-(2-methoxy-5-methyl-phenyl)-N′-methyl-pyrimidine-2,4-diamine] | 722 nM
14 | COc1ccc(N(C)c2ccnc(Nc3cc(N4CCOCC4)cc(N4CCOCC4)c3)n2)cc1Cl [Example 15.14, N′-(3-chloro-4-methoxy-phenyl)-N-(3,5-dimorpholin-4-ylphenyl)-N′-methyl-pyrimidine-2,4-diamine] | 500 nM
15 | CN(c1ccnc(Nc2cc(N3CCOCC3)cc(N3CCOCC3)c2)n1)c1cccc(Cl)c1F [Example 15.15, N′-(3-chloro-2-fluoro-phenyl)-N-(3,5-dimorpholin-4-ylphenyl)-N′-methyl-pyrimidine-2,4-diamine] | 696 nM
16 | CN(c1ccc(Cl)c(F)c1)c1ccnc(Nc2cc(N3CCOCC3)cc(N3CCOCC3)c2)n1 [Example 15.16, N′-(4-chloro-3-fluoro-phenyl)-N-(3,5-dimorpholin-4-ylphenyl)-N′-methyl-pyrimidine-2,4-diamine] | 634 nM

Row | Structure (SMILES) | IC50
17 | CN(c1ccnc(Nc2cc(N3CCOCC3)cc(N3CCOCC3)c2)n1)c1ccc(Cl)cc1F [Example 15.17, N′-(4-chloro-2-fluoro-phenyl)-N-(3,5-dimorpholin-4-ylphenyl)-N′-methyl-pyrimidine-2,4-diamine] | 1150 nM
18 | Cc1ccc(Cl)c(N(C)c2ccnc(Nc3cc(N4CCOCC4)cc(N4CCOCC4)c3)n2)c1 [Example 15.18, N′-(2-chloro-5-methyl-phenyl)-N-(3,5-dimorpholin-4-ylphenyl)-N′-methyl-pyrimidine-2,4-diamine] | 1390 nM
19 | Cc1ccc(N(C)c2ccnc(Nc3cc(N4CCOCC4)cc(N4CCOCC4)c3)n2)cc1Cl [Example 15.19, N′-(3-chloro-4-methyl-phenyl)-N-(3,5-dimorpholin-4-ylphenyl)-N′-methyl-pyrimidine-2,4-diamine] | 1730 nM
20 | Cc1cccc(Cl)c1N(C)c1ccnc(Nc2cc(N3CCOCC3)cc(N3CCOCC3)c2)n1 [Example 15.20, N′-(2-chloro-6-methyl-phenyl)-N-(3,5-dimorpholin-4-ylphenyl)-N′-methyl-pyrimidine-2,4-diamine] | 1750 nM
21 | CN(c1ccnc(Nc2cc(N3CCOCC3)cc(N3CCOCC3)c2)n1)c1cccc(Cl)c1Cl [Example 15.21, N′-(2,3-dichlorophenyl)-N-(3,5-dimorpholin-4-ylphenyl)-N′-methyl-pyrimidine-2,4-diamine] | 1310 nM
22 | CN(c1ccc(F)c(Cl)c1)c1ccnc(Nc2cc(N3CCOCC3)cc(N3CCOCC3)c2)n1 [Example 15.22, N′-(4-fluoro-3-chloro-phenyl)-N-(3,5-dimorpholin-4-ylphenyl)-N′-methyl-pyrimidine-2,4-diamine] | 316 nM
23 | CCOc1cc(Nc2nccc(N(C)c3cc(CO)ccc3C)n2)cc(N2CCOCC2)c1 [Example 16, [3-[[2-[(3-ethoxy-5-morpholin-4-yl-phenyl)amino]pyrimidin-4-yl]-methyl-amino]-4-methyl-phenyl]methanol] | 132 nM
24 | CCCOc1cc(Nc2nccc(N(C)c3cc(CO)ccc3C)n2)cc(N2CCOCC2)c1 [Example 17.1, [4-methyl-3-[methyl-[2-[(3-morpholin-4-yl-5-propoxy-phenyl)amino]pyrimidin-4-yl]amino]phenyl]methanol] | 265 nM
25 | Cc1ccc(CO)cc1N(C)c1ccnc(Nc2cc(OC(C)C)cc(N3CCOCC3)c2)n1 [Example 17.2, [4-methyl-3-[methyl-[2-[(3-morpholin-4-yl-5-propan-2-yloxy-phenyl)amino]pyrimidin-4-yl]amino]phenyl]methanol] | 171 nM
26 | Cc1ccc(CO)cc1N(C)c1ccnc(Nc2cc(OCC(C)C)cc(N3CCOCC3)c2)n1 [Example 17.3, [4-methyl-3-[methyl-[2-[[3-(2-methylpropoxy)-5-morpholin-4-yl-phenyl]amino]pyrimidin-4-yl]amino]phenyl]methanol] | 1910 nM
27 | Cc1ccc(CO)cc1N(C)c1ccnc(Nc2cc(OCC3CC3)cc(N3CCOCC3)c2)n1 [Example 17.4] | 1090 nM
28 | Cc1ccc(CO)cc1N(C)c1ccnc(Nc2cc(OC3CCC3)cc(N3CCOCC3)c2)n1 [Example 17.5, [3-[[2-[(3-cyclobutyloxy-5-morpholin-4-yl-phenyl)amino]pyrimidin-4-yl]-methyl-amino]-4-methyl-phenyl]methanol] | 951 nM
29 | COC(C)CCOc1cc(Nc2nccc(N(C)c3cc(CO)ccc3C)n2)cc(N2CCOCC2)c1 (centres unmarked) [Example 17.6, [3-[[2-[[3-(3-methoxybutoxy)-5-morpholin-4-yl-phenyl]amino]pyrimidin-4-yl]-methyl-amino]-4-methyl-phenyl]methanol] | 1210 nM
30 | CCOCCOc1cc(Nc2nccc(N(C)c3cc(CO)ccc3C)n2)cc(N2CCOCC2)c1 [Example 17.7, [3-[[2-[[3-(2-ethoxyethoxy)-5-morpholin-4-yl-phenyl]amino]pyrimidin-4-yl]-methyl-amino]-4-methyl-phenyl]methanol] | 639 nM
31 | Cc1ccc(CO)cc1N(C)c1ccnc(Nc2cc(OC3CCOC3)cc(N3CCOCC3)c2)n1 (centres unmarked) [Example 17.8, [4-methyl-3-[methyl-[2-[[3-morpholin-4-yl-5-(oxolan-3-yloxy)phenyl]ami-no]pyrimidin-4-yl]amino]phenyl]methanol] | 481 nM
32 | Cc1ccc(CO)cc1N(C)c1ccnc(Nc2cc(O[C@H]3CCOC3)cc(N3CCOCC3)c2)n1 [Example 17.9, [4-methyl-3-[methyl-[2-[[3-morpholin-4-yl-5-[(3S)-oxolan-3-yl]oxyphenyl]ami-no]pyrimidin-4-yl]amino]phenyl]methanol] | 443 nM
